Results on nine compounds are retold here after PubChem BioAssay (NCI).

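Cultured in 96-well plates, cells were exposed to test compound for 48 hours across five concentrations. GI50 marks 50% less growth. TGI denotes the concentration required for complete inhibition of growth.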

Some test systems named below: EKVX NSCLC; TK-10 renal; MALME-3M melanoma; MDA-MB-435; UACC-62 melanoma; HT29 colon; 786-0 renal; NCI-H226 lung; NCI/ADR-RES ovarian; UACC-257 melanoma.
Assay in all cases: NCI tumour cell line growth inhibition, 48 h

As for `CCOC(=O)/C(=C/N1CCN(C(=O)c2ccco2)C1=S)C(=O)c1ccccc1`, the GI50 in the assay on EKVX NSCLC was 9.53 µM; in the assay on TK-10 renal it was 12.4 µM; in the assay on MALME-3M melanoma, 13.3 µM; with MDA-MB-435, 14.4 µM; with UACC-62 melanoma it was 7.64 µM; with HT29 colon, 19.2 µM. In addition, the GI50 in the assay on 786-0 renal is 12.9 µM. In addition, the TGI in the assay on EKVX NSCLC is 23.7 µM; in the assay on TK-10 renal, 34 µM; in the assay on MALME-3M melanoma, 48.4 µM; in the assay with MDA-MB-435, greater than 50 µM; in the assay on UACC-62 melanoma, 17.5 µM; in the assay on HT29 colon, greater than 50 µM. Moreover, the TGI in the assay on 786-0 renal was found to be 45.2 µM.

In the case of `C=C1CC[C@@H]2[C@](C)(COC(C)=O)[C@H](OC(C)=O)CC[C@@]2(C)[C@@H]1CC(Nc1ccc(S(=O)(=O)NC(C)=O)cc1)C1=CCOC1=O` (stereo partly drawn), the GI50 with NCI-H226 lung is 1.92 µM; in the assay with EKVX NSCLC, 10.8 µM; with TK-10 renal, 8.01 µM; with NCI/ADR-RES ovarian, 2.51 µM; in the assay with MDA-MB-435 it was 2.79 µM; in the assay on UACC-62 melanoma it was 2.59 µM. The GI50 with UACC-257 melanoma was 6.82 µM; with HT29 colon, 1.57 µM; in the assay on 786-0 renal, 2.44 µM. Further, the TGI is 4.62 µM in the assay on NCI-H226 lung; 20.9 µM in the assay with EKVX NSCLC; 16.9 µM in the assay with TK-10 renal; 9.14 µM in the assay on NCI/ADR-RES ovarian; 10.6 µM with MDA-MB-435; 10.8 µM in the assay with UACC-62 melanoma. The TGI with UACC-257 melanoma was found to be 16 µM; with HT29 colon it was 3.55 µM; in the assay on 786-0 renal, 7.98 µM.

`Fc1cc2[nH]ncc2c2c3c(c(-c4cn[nH]c4C(F)(F)F)nc12)CCCC3`: the GI50 with NCI-H226 lung is 2.64 µM; in the assay on EKVX NSCLC it was 1.84 µM; in the assay with MALME-3M melanoma it was 1.91 µM; in the assay with NCI/ADR-RES ovarian, 4.95 µM; with MDA-MB-435, 2.39 µM; with UACC-62 melanoma, 1.31 µM. Further, the GI50 is 2.95 µM with HT29 colon and 2 µM with 786-0 renal. The TGI with NCI-H226 lung is greater than 100 µM; with EKVX NSCLC, 5.3 µM; in the assay on MALME-3M melanoma, 5.41 µM; in the assay on NCI/ADR-RES ovarian, 43.4 µM; in the assay with MDA-MB-435 it was 12.1 µM; in the assay with UACC-62 melanoma it was 3 µM. In addition, the TGI was greater than 100 µM in the assay with HT29 colon and 7.16 µM in the assay with 786-0 renal.

For the compound `CCSCC1CC(O)(c2ccccc2)CC(c2ccc(F)cc2)O1` (stereo not drawn), the GI50 is 2.13 µM in the assay with EKVX NSCLC; 2.16 µM in the assay with TK-10 renal; 1.56 µM with MALME-3M melanoma; 2.44 µM in the assay with NCI/ADR-RES ovarian; 2.04 µM in the assay on MDA-MB-435; 1.42 µM in the assay on UACC-62 melanoma. The results for the GI50 with UACC-257 melanoma, in the assay with HT29 colon and with 786-0 renal were 2.27 µM, 1.73 µM and 2.02 µM, respectively. Also, the TGI in the assay on EKVX NSCLC came to 6.04 µM; in the assay on TK-10 renal, 6.13 µM; with MALME-3M melanoma, 3.51 µM; in the assay with NCI/ADR-RES ovarian, 6.66 µM; in the assay on MDA-MB-435 it was 4.36 µM; in the assay with UACC-62 melanoma, 3.2 µM. For the same compound, the TGI with UACC-257 melanoma came out at 5.26 µM; in the assay on HT29 colon it was 3.46 µM; in the assay on 786-0 renal, 4.53 µM.

Turning to `CC(C)C1=CC(=O)C(C)(C2C(O)CC3(C)C4CC=C5C(CCC(OC6OC(CO)C(O)C(O)C6OC6OC(C)C(O)C(O)C6O)C5(C)C)C4(C)C(=O)CC23C)O1` (stereo not drawn), the TGI in the assay on NCI-H226 lung, in the assay with EKVX NSCLC, in the assay on MALME-3M melanoma, in the assay on NCI/ADR-RES ovarian, in the assay with MDA-MB-435 and in the assay on UACC-62 melanoma was greater than 100 µM throughout. In addition, the TGI with UACC-257 melanoma, in the assay with HT29 colon and in the assay on 786-0 renal was greater than 100 µM throughout.

As to `COc1ccc2c(c1OC)C[C@@H]1c3c(cc4c(c3-2)OCO4)CCN1C`, the TGI was 47 µM in the assay on NCI-H226 lung; greater than 100 µM in the assay on EKVX NSCLC; 74.6 µM in the assay with TK-10 renal; greater than 100 µM in the assay on MALME-3M melanoma; greater than 100 µM with MDA-MB-435; 43.8 µM with UACC-62 melanoma. Also, the TGI in the assay on UACC-257 melanoma worked out at 61 µM; with HT29 colon, 41.3 µM; with 786-0 renal it was 63.9 µM.

As for `CC(=O)Nc1ccc2c(c1)C(c1ccccc1Cl)=Nc1c(n[nH]c1C)N2`, the GI50 is 0.57 µM with NCI-H226 lung; 4.13 µM with TK-10 renal; greater than 25 µM with MALME-3M melanoma; greater than 25 µM in the assay on NCI/ADR-RES ovarian; greater than 20 µM in the assay with MDA-MB-435; 6.07 µM with UACC-62 melanoma. The GI50 in the assay with UACC-257 melanoma was greater than 25 µM; in the assay on HT29 colon it was 4.45 µM; with 786-0 renal it was 7.79 µM. The TGI is greater than 17.7 µM with NCI-H226 lung; greater than 25 µM in the assay on TK-10 renal; greater than 25 µM in the assay on MALME-3M melanoma; greater than 25 µM with NCI/ADR-RES ovarian; greater than 25 µM with MDA-MB-435; greater than 25 µM in the assay with UACC-62 melanoma. The TGI in the assay on UACC-257 melanoma, in the assay with HT29 colon and in the assay with 786-0 renal was greater than 25 µM in each case.

Regarding `CS(=O)(=O)Nc1cncc(-c2ccc3ncnc(Nc4ccc(F)c(Cl)c4)c3c2)c1`, the GI50 with NCI-H226 lung is 2.57 µM; with EKVX NSCLC, 0.888 µM; with MALME-3M melanoma it was 2.08 µM; with NCI/ADR-RES ovarian, 15.4 µM; with MDA-MB-435 it was 3.92 µM; in the assay on UACC-62 melanoma it was 2.22 µM. Besides, the GI50 with UACC-257 melanoma is 4.59 µM; in the assay on HT29 colon it was 2.43 µM; in the assay on 786-0 renal, 2.7 µM. Moreover, the TGI stood at 21.3 µM with NCI-H226 lung; 7.01 µM in the assay with EKVX NSCLC; 13.6 µM in the assay on MALME-3M melanoma; 60 µM in the assay on NCI/ADR-RES ovarian; 17 µM with MDA-MB-435; 11.8 µM in the assay on UACC-62 melanoma. The TGI was 23 µM with UACC-257 melanoma, 11.4 µM in the assay with HT29 colon and 14.8 µM in the assay with 786-0 renal.

Turning to `CC(C)(C)c1ccc(S(=O)(=O)Oc2ccc3c4c(c(=O)oc3c2)CCCCC4)cc1`, the GI50 in the assay with NCI-H226 lung was 9.94 µM; with TK-10 renal, 18.1 µM; in the assay with MALME-3M melanoma it was 24.8 µM; in the assay on NCI/ADR-RES ovarian, 13.9 µM; in the assay on MDA-MB-435, 34.6 µM; in the assay on UACC-62 melanoma it was 3.19 µM. Also, the GI50 is 7.46 µM in the assay with UACC-257 melanoma, 7.95 µM with HT29 colon and 25.3 µM with 786-0 renal. In addition, the TGI in the assay on NCI-H226 lung was greater than 100 µM; in the assay with TK-10 renal it was 36.4 µM; in the assay on MALME-3M melanoma it was 76.5 µM; with NCI/ADR-RES ovarian, greater than 100 µM; in the assay on MDA-MB-435, greater than 100 µM; in the assay with UACC-62 melanoma, 33.6 µM. Further, the TGI with UACC-257 melanoma, with HT29 colon and in the assay with 786-0 renal was greater than 100 µM each time.
